Each block holds one molecule with its values, some of them ahead of it.
Assays:
HeLa cells = assay: Starvation-induced autophagy in HeLa cells (Western blot of LC3B and p62); format: cell-based; settings: EBSS 0-4 hrs, BafA1 10 nM, CQ 20 μM, SPV-94 1 μM
Experimental: To limit basal autophagy, cells were incubated in fresh growth medium for 1 hr before starvation. Samples were analyzed by Western blot using autophagic flux markers LC3B and p62 (A) and its expression levels were quantified (10B and 10C).

Nurr1-LBD [1] = target: T1, Nurr1-LBD (Homo sapiens, UniProt P43354); assay: Luciferase activity assay (p4xNL3-Luc reporter) with Nurr1-LBD in SK-N-BE(2)C cells; format: cell-based; set-up: expressed in transfected cells; host or cells: SK-N-BE(2)C human neuroblastoma cells; settings: SK-N-BE(2)C cells; read-out: EC50, transcriptional activity of Nurr1-LBD
[2] = tested on: Nurr1-LBD and full-length Nurr1; assay: Luciferase activity assay (Nurr1 transactivation) in N27-A cells; format: cell-based, murine
MN9D cells = assay: Protection against MPP+-induced toxicity in MN9D cells (MTT reduction, LDH release)
Experimental: Cell viability and cytotoxicity were measured by MTT (3-(4,5-dimethylthiazol-2-yl)-2,5-diphenyltetrazolium bromide) reduction assay.
Cell viability and cytotoxicity were measured by lactate dehydrogenase (LDH) release assay.

N27-A cells [3] = assay: Starvation-induced autophagy and Nurr1 expression in N27-A cells with or without MPP+; format: cell-based; settings: CQ 20 μM, SPV-94 1 μM
Experimental: LC3B, p62 and Nurr1 expression levels determined by Western blot (D) were quantified.
Next, autophagy regulation was assessed in a dopaminergic cell line N27-A in the absence or presence of MPP^+ (1 mM). […] Furthermore, it was observed that MPP disrupted autophagy showing accumulated LC3B-II and remained p62 at the late-stage, which corresponds to the previous studies (See Lim et al., Autophagy 2011, 7, 51-60; Hung et al., PLoS ONE 2014, 9, e91074; Park et al., J Biol Chem 2016, 291, 3531-3540).
Referring to FIGS. 10D-10G, N27-A cells were treated with vehicle or MPP+ (1 mM) for 24 hrs and then changed with fresh growth medium with or without MPP+ 1 hr before starvation. […] To induce autophagy, N27-A cells were incubated in EBSS for 0-4 hrs, in the absence or presence of MPP+. Samples were analyzed by Western blot using autophagic flux markers LC3B and p62 (D) and its expression levels were quantified (10E and 10F). […] (10G) Nurr1 expression level changes were also analyzed and quantified.

N27-A cells [4] = assay: Protection against MPP+-induced toxicity in N27-A cells (MTT, LDH); settings: 1 mM MPP+
[5] = tested on: mouse bone marrow-derived primary macrophages (mBMMs); assay: LPS- or poly(I:C)-induced pro-inflammatory gene expression in mBMMs; format: cell-based; settings: CQ 10 μM, SPV-94 1 μM
Excerpt: (§1) Besides the role as an activator of DAergic genes, Nurr1 is known as a repressor of inflammatory genes in astrocytes and microglia (See Saijo et al., Cell 2009, 137, 47-59).

[6] = tested on: MPTP-induced PD model mice; assay: Sub-chronic MPTP-induced mice model of PD; settings: for body weight recovery / cylinder test, rearing numbers, sub-chronic treatment / pole test, time to traverse, sub-chronic treatment / rotarod latency to fall, sub-chronic treatment: L-DOPA 50, CQ 40, SPV-94 5 mg/kg/day; for TH+ DAergic neurons (counting and densitometry): STR, SNpc and OB; for dyskinesia in the abnormal involuntary movements (AIMs) test: chronic administration; for olfactory discrimination test (olfaction), chronic treatment: day 14; for rotarod latency to fall, chronic treatment: day 15
Experimental: Sub-chronic MPTP regimen (30 mg/kg/day, 5 days) was introduced.

BV2 cells = assay: LPS-induced TNFα mRNA expression in BV2 cells (real-time PCR); format: cell-based, mouse; settings: LPS 1 μg/ml, compound 1 μM
Excerpt: as §1

[7] = tested on: mouse embryonic ventral mesencephalic (mVM) primary neurons; assay: Dopaminergic gene expression in mVM primary neurons with or without 6-OHDA; format: cell-based
Experimental: FIGS. 8A-8D show dopaminergic (DAergic) gene expressions in the absence or presence of 6-OHDA (20 μM) in mouse embryonic ventral mesencephalic (mVM) primary neurons derived from embryonic day 12.5 (E12.5).

[8] = tested on: Nurr1-LBD and full-length Nurr1; assay: Luciferase activity assay (Nurr1 transactivation) in MN9D cells; format: cell-based, murine
full-length Nurr1 = target: T2, full-length Nurr1 (Homo sapiens, UniProt P43354); assay: Luciferase activity assay (p4xNL3-Luc reporter) with full-length Nurr1 in SK-N-BE(2)C cells; format: cell-based; settings: SK-N-BE(2)C cells; read-out: EC50, transcriptional activity of full-length Nurr1
T2 construct: expressed in transfected cells; host or cells: SK-N-BE(2)C human neuroblastoma cells

Nurr1-LBD [9] = target: T1, Nurr1-LBD; assay: Radioligand competition binding assay using [3H]-CQ
CD-1 mice = assay: Escalating dose maximum tolerated dose study; format: in vivo; settings: oral; for cage side observation, clinical signs: escalating dose from 5 mg/kg
Experimental: The objective of this study was to evaluate the escalating dose maximum tolerated dose study of compound of Formula (II) and comparative example
in CD-1 mice. Animals were monitored on a daily basis with body weights and clinical signs, and any abnormal observation findings were recorded.

[10] = Pharmacokinetic study after single oral administration; format: in vivo, Rat; settings: Sprague-Dawley (SD), plasma, 20 mg/kg; for AUC(0-t): rat, Male SD Rats, PO; for concentration at 0.083 h / concentration at 0.25 h / concentration at 0.5 h / concentration at 1 h / concentration at 2 h / concentration at 4 h / concentration at 8 h / concentration at 24 h: male, Rat, oral, read-out: Plasma Conc.
Excerpt: The objective of this study was to characterize the pharmacokinetics (PK) of compound of Formula (II) in Male SD Rats after single intravenous (IV) and oral (PO) administration. […] Following PO administration with comparative example 2: […]

T1 sequence (P43354 360-595 limits assumed): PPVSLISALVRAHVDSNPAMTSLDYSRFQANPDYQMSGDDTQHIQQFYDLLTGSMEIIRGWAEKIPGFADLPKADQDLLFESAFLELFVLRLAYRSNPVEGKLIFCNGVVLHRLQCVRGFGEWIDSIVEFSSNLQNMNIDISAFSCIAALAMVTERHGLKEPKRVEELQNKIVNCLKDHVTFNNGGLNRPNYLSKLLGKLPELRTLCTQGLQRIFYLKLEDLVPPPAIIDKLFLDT
T2 sequence (P43354 whole entry): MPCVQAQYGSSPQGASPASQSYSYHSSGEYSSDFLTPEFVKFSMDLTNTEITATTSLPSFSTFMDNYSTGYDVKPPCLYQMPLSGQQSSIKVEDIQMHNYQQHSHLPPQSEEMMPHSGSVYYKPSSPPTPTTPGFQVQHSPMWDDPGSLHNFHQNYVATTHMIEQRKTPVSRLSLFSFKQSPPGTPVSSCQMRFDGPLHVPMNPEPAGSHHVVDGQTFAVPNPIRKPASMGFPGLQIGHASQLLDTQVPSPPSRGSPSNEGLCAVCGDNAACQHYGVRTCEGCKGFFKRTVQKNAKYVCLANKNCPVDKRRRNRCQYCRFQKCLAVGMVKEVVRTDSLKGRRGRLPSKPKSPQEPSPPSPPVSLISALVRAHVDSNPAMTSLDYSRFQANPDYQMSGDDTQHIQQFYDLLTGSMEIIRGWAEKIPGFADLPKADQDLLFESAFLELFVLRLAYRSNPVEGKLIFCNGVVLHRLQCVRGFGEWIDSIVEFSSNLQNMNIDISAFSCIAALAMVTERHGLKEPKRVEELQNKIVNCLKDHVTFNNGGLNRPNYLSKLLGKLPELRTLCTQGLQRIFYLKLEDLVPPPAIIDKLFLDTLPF

SMILES: CO/C1=C\C(C)=C\[C@@H](C)[C@@H](O)[C@@H](C)C/C(C)=C/C=C/[C@H](OC)[C@@H]([C@@H](C)[C@@H](O)[C@H](C)[C@@]2(O)C[C@@H](O)[C@H](C)[C@@H](C(C)C)O2)OC1=O [BafA1, bafilomycin A1]
autophagy process (LC3B, p62) (HeLa cells): induced autophagy initiation but inhibited autophagy process termination

SMILES: CCN(CC)CCCC(C)Nc1ccnc2cc(Cl)ccc12 (centres unmarked) [CQ, chloroquine]
EC50 (Nurr1-LBD [1]): 50 µM
transcriptional activities of Nurr1-LBD and full-length Nurr1 [2]: enhanced transcriptional activities
cytotoxicity, LDH release assay (MN9D cells; 500 μM MPP+): reduced cytotoxicity
protective effect against MPP+-induced toxicity under Nurr1 overexpression (OE) (MN9D cells; CQ 100 μM, SPV-94 1 μM, vs Mock): potentiated protective effects
autophagy process (LC3B, p62) (HeLa cells): induced autophagy initiation but inhibited autophagy process termination
basal Nurr1 expression level compared to VEH (N27-A cells [3]): significantly higher
cytotoxicity, LDH assay (N27-A cells [4]): reduced cytotoxicity in LDH assay
LPS- or poly(I:C)-induced pro-inflammatory gene expressions (TNFα, iNOS, IL-1β, IL-6) [5]: significantly suppressed LPS- or poly(I:C)-induced pro-inflammatory gene expressions
body weight recovery [6]: regained body weight after day 8
cylinder test, rearing numbers, sub-chronic treatment [6]: recovered rearing numbers in the cylinder test
pole test, time to traverse, sub-chronic treatment [6]: reduced time to traverse on a pole
rotarod latency to fall, sub-chronic treatment [6]: significantly improved motor deficits on the rotarod latency to fall
TH+ DAergic neurons (counting and densitometry) [6]: significantly restored DAergic neurons
dyskinesia in the abnormal involuntary movements (AIMs) test [6]: did not trigger dyskinesia
olfactory discrimination test (olfaction), chronic treatment [6]: significantly recovered olfaction
rotarod latency to fall, chronic treatment [6]: improved latency to fall on the rotarod on day 15
suppression of TNFα expression compared to LPS only (BV2 cells): 35.53%
DAergic gene expressions downregulated by 6-OHDA toxicity ([7]; 6-OHDA 20 μM, CQ 20 μM, SPV-94 0.5 μM): significant recovery of downregulated DAergic gene expressions
mRNA expression levels of DAergic genes (TH, DAT, AADC, VMAT2, c-Ret, Pitx3) ([7]; CQ 20 μM, SPV-94 0.5 μM, vs vehicle): significantly upregulated mRNA expression levels of DAergic genes
effects on DAergic gene expression in Nurr1 knockdown condition ([7]; Nurr1 KD): disappeared
transcriptional activities of Nurr1-LBD and full-length Nurr1 [8]: enhanced transcriptional activities
EC50 (full-length Nurr1): 50 µM
Ki (Nurr1-LBD [9]): 0.0284 µM
IC50 (Nurr1-LBD [9]; 1,000 nM [3H]-CQ, 0.2 μM Nurr1-LBD, estimated, read-out: half maximal inhibitory concentration (IC50), competition with [3H]-CQ for binding to Nurr1-LBD): 1 µM

SMILES: Clc1ccc2c(NCCN3CCN(c4ccnc(-n5ccnc5)n4)CC3)ccnc2c1 [Formula (II)]
cage side observation, clinical signs (CD-1 mice; CD-1 mice): no abnormalities were observed
AUC(0-t) [10]: 7340 ng·h/mL
concentration at 0.083 h [10]: 10.7 ng/mL
concentration at 0.25 h [10]: 118 ng/mL
concentration at 0.5 h [10]: 559 ng/mL
concentration at 1 h [10]: 1180 ng/mL
concentration at 2 h [10]: 1020 ng/mL
concentration at 4 h [10]: 953 ng/mL
concentration at 8 h [10]: 294 ng/mL
concentration at 24 h [10]: 16.8 ng/mL

dyskinesia in the abnormal involuntary movements (AIMs) test [6]: developed dyskinesia
SMILES: N[C@@H](Cc1ccc(O)c(O)c1)C(=O)O [L-DOPA, L-3,4-dihydroxyphenylalanine]
olfactory discrimination test (olfaction), sub-acute stage [6]: failed to restore olfaction
body weight recovery [6]: regained body weight after day 8
cylinder test, rearing numbers, sub-chronic treatment [6]: recovered rearing numbers in the cylinder test
pole test, time to traverse, sub-chronic treatment [6]: reduced time to traverse on a pole
rotarod latency to fall, sub-chronic treatment [6]: significantly improved motor deficits on the rotarod latency to fall
Nurr1-immunoreactive cells ([6]; SNpc): failed to protect Nurr1 expressions
Iba-1+ microglia numbers ([6]; STR and SNpc): failed to suppress microglial activation
TH+ DAergic neurons (counting and densitometry) [6]: did not show protective effect
olfactory discrimination test (olfaction), chronic treatment [6]: could not recover olfaction even with chronic treatment
rotarod latency to fall, chronic treatment [6]: improved latency to fall on the rotarod on day 15
velocity during olfactory discrimination ([6]; sub-acute stage): hyperactivity indicated as increased velocity

AUC(0-t) [10]: 250 ng·h/mL
concentration at 0.083 h [10]: 5.15 ng/mL
concentration at 0.25 h [10]: 6.68 ng/mL
concentration at 0.5 h [10]: 9.91 ng/mL
concentration at 1 h [10]: 13.9 ng/mL
concentration at 2 h [10]: 14.9 ng/mL
concentration at 4 h [10]: 12 ng/mL
concentration at 8 h [10]: 16.5 ng/mL
concentration at 24 h [10]: 5.92 ng/mL
SMILES: Cc1cc(NCCCNc2ccnc3cc(Cl)ccc23)nc(N2CCN(C)CC2)n1 [comp. ex. 2]

AUC(0-t) [10]: 271 ng·h/mL
concentration at 0.083 h [10]: 7.71 ng/mL
concentration at 0.25 h [10]: 16 ng/mL
concentration at 0.5 h [10]: 16.6 ng/mL
concentration at 1 h [10]: 19.4 ng/mL
concentration at 2 h [10]: 23.3 ng/mL
concentration at 4 h [10]: 19.5 ng/mL
concentration at 8 h [10]: 14.5 ng/mL
concentration at 24 h [10]: 3.53 ng/mL
SMILES: Cc1cc(NCCCNc2ccnc3cc(Cl)ccc23)nc(N2CCCC2)n1 [comp. ex. 3]

SMILES: Cc1cc(NCCCNc2ccnc3cc(Cl)ccc23)nc(N2CCCCC2)n1 [comparative example]
tolerability at 40 mg/kg (CD-1 mice; CD-1 male mice, 40 mg/kg): cannot be tolerated well
clinical signs and outcome at 40 mg/kg (CD-1 mice; CD-1 mice, 40 mg/kg): prone, slightly low temperature and twitched to death on the fourth dosing day
cage side observation, clinical signs (CD-1 mice; CD-1 mice): weight loss, roach back, rough coat, low temperature, low activity, tremble or/and dying

Source: patent US20230312510A1, “COMPOUNDS AND METHODS FOR TREATING NEURODEGENERATIVE DISEASES” (The McLean Hospital Corporation, priority 2020, published 2023)
